Results published in patent US10336702B2, “Pharmaceutically active compounds” (BERGENBIO ASA, priority 2015, dated 2019).

Key:
Akt1 = biological target: T1, Akt1 (Homo sapiens, UniProt P31749); assay: Akt activation assay (PDK1-mediated activation, LANCE Ultra crosstide TR-FRET), Akt1; format: biochemical; details: read-out: Biological Assay 1 IC50 (nM) Akt1
T1 construct: unspecified tag, removed (detagged) (cleaved yes); purchased SignalChem and Proteros (Akt1); Merck Millipore (PDK1) 14-452 (PDK1); none given for Akt1
Procedure, shortened: (§1)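 Human Akt1, Akt2 or Akt3 (SignalChem: 5, 15, 3 nM; Proteros: 5 nM each) was preincubated with compound, then activated by 5 nM PDK1 on PtdIns(3,4,5)P3/DOPS/DOPC vesicles with 100 µM ATP and 100 nM ULight-crosstide (HEPES pH 7.5, 1% DMSO) for 30 min. Product was detected by Eu-anti-phospho-crosstide TR-FRET (665/615 nm), with IC50 from a 4-parameter fit.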

Akt3 = biological target: T2, Akt3 (Homo sapiens, UniProt Q9Y243); assay: Akt activation assay (PDK1-mediated activation, LANCE Ultra crosstide TR-FRET), Akt3; format: biochemical; details: read-out: Biological Assay 1 IC50 (nM) Akt3
T2 construct: unspecified tag, removed (detagged) (cleaved yes); purchased SignalChem and Proteros (Akt3); Merck Millipore (PDK1) 14-452 (PDK1); none given for Akt3
Procedure, shortened: as §1

p-Akt2 in WM115 cells = biological target: T3, p-Akt2 in WM115 cells (Homo sapiens, UniProt P31751); assay: Phospho-Akt cellular SureFire assay, p-Akt2 in WM115 cells; format: cell-based; details: insulin stimulated, read-out: Biological Assay 2 IC50 (nM) Akt2 WM115
T3 construct: SureFire assays to detect cellular p-Akt1, p-Akt2 and p-Akt3 levels in WM115 cells (Akt2/3) and LNCaP cells (Akt1); endogenous in cells; host or cells: WM115 (ECACC 91061232), insulin-stimulated
Procedure, shortened: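 WM115 cells in 0.1% FBS medium stimulated 10 min with 100 nM insulin, then exposed to compound for 15 min at 37° C (0.3% DMSO final). Lysates assayed by AlphaScreen with anti-(pThr308)Akt and isoform-specific total Akt2 antibodies; IC50 from 4-parameter fit.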

p-Akt1 in LNCaP cells = biological target: T4, p-Akt1 in LNCaP cells (Homo sapiens, UniProt P31749); assay: Phospho-Akt cellular SureFire assay, p-Akt1 in LNCaP cells; format: cell-based; details: read-out: Biological Assay 2 IC50 (nM) Akt1 LNCaP
T4 construct: SureFire assays to detect cellular p-Akt1, p-Akt2 and p-Akt3 levels in WM115 cells (Akt2/3) and LNCaP cells (Akt1); endogenous in cells; host or cells: LNCaP (ECACC 89110211)
Description: Biological Assay 2: Phospho-Akt (p-Akt) Cellular SureFire Assays
The following describes SureFire assays to detect cellular p-Akt1, p-Akt2 and p-Akt3 levels in WM115 cells (Akt2/3) and LNCaP cells (Akt1). In the case of Akt2 and Akt3, Streptavidin-coated donor beads capture a biotinylated anti-mouse antibody that in turn recognises a mouse total Akt antibody which is specific to each isoform. The protein A-conjugated acceptor beads capture an antibody that recognises the phosphoprotein. Similarly in the Akt1 kit, the donor and acceptor beads are used to capture each antibody pair consisting of an antibody that specifically recognises Akt1 as well as an antibody that recognises the phosphoprotein. In each case, close proximity of the beads allows energy transfer from donor to acceptor.
AlphaScreen® SureFire™ Phospho-Akt1 (pThr308) Kit from Perkin Elmer (TGRA2S10K)
LNCaP cells (ECACC, 89110211) cultured in RPMI-1640 culture media (Fisher, 10665193) supplemented with 2 mM L-glutamine, 1% sodium pyruvate and 10% FBS
Cell treatment: 1×10^5 WM115 cells or 5×10^4 LNCaP cells were seeded into each well of a 96 well poly-D-Lysine coated tissue culture plate and incubated overnight at 37° C.+5% CO2. Media was removed from cells and replaced with assay buffer consisting of the full culture media described above but with 0.1% FBS instead of 10% FBS. Only WM115 cells were stimulated at 37° C.+5% CO2 for 10 min with 5 μL insulin at a final concentration of 100 nM. Cells were incubated with 5 μL of test compound at a final DMSO concentration of 0.3% for 15 min at 37° C.+5% CO2. Cell lysis was carried out according to kit instructions.
Assay format (performed in subdued lighting): 4 μL cell lysate and 5 μL reaction buffer were incubated together in the dark at room temperature for 2 h. Reaction buffer was supplemented with a 1/5 dilution of activation buffer, a 1/50 dilution of acceptor beads and in the case of the custom kits, antibodies were added at dilutions of 1/20,000 for Akt2 and 1/2,000 for Akt3.
2 μL dilution buffer, supplemented with a 1/20 dilution of donor beads was added to each well and incubated for a further 2 h. Plates were read with the EnVision® Multilabel Plate Reader and using the AlphaScreen settings. Compound IC50 was determined using a 4-parameter equation.

p-Akt3 in WM115 cells = biological target: T5, p-Akt3 in WM115 cells (Homo sapiens, UniProt Q9Y243); assay: Phospho-Akt cellular SureFire assay, p-Akt3 in WM115 cells; format: cell-based; details: insulin stimulated, read-out: Biological Assay 2 IC50 (nM) Akt3 WM115
T5 construct: SureFire assays to detect cellular p-Akt1, p-Akt2 and p-Akt3 levels in WM115 cells (Akt2/3) and LNCaP cells (Akt1); endogenous in cells; host or cells: WM115 (ECACC 91061232), insulin-stimulated
Procedure, shortened: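 WM115 cells were serum-reduced to 0.1% FBS, stimulated with 100 nM insulin for 10 min, then exposed to compound (0.3% DMSO) for 15 min at 37 °C. Lysates were assayed for Thr308-phosphorylated Akt3 by AlphaScreen SureFire using an isoform-specific total Akt3 capture antibody. IC50 was derived from a 4-parameter fit.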

Akt2 = biological target: T6, Akt2 (Homo sapiens, UniProt P31751); assay: Akt activation assay (PDK1-mediated activation, LANCE Ultra crosstide TR-FRET), Akt2; format: biochemical; details: read-out: Biological Assay 1 IC50 (nM) Akt2
T6 construct: unspecified tag, removed (detagged) (cleaved yes); purchased SignalChem and Proteros (Akt2); Merck Millipore (PDK1) 14-452 (PDK1); none given for Akt2
Procedure, shortened: as §1

T2 sequence (Q9Y243 whole entry): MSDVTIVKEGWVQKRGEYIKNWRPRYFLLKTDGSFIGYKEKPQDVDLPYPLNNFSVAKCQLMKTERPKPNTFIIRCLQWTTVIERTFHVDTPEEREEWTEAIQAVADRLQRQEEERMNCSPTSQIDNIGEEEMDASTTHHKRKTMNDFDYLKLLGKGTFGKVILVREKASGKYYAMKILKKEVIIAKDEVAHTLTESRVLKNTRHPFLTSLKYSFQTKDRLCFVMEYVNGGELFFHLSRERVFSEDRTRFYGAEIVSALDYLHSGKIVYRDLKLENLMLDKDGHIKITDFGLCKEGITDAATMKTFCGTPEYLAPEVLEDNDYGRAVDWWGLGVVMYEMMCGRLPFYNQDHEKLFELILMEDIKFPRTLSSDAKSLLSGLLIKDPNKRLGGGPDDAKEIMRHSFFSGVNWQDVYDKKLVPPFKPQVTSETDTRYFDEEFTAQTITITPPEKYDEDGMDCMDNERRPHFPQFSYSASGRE
T5 sequence (Q9Y243 whole entry): as above
T6 sequence (P31751 whole entry): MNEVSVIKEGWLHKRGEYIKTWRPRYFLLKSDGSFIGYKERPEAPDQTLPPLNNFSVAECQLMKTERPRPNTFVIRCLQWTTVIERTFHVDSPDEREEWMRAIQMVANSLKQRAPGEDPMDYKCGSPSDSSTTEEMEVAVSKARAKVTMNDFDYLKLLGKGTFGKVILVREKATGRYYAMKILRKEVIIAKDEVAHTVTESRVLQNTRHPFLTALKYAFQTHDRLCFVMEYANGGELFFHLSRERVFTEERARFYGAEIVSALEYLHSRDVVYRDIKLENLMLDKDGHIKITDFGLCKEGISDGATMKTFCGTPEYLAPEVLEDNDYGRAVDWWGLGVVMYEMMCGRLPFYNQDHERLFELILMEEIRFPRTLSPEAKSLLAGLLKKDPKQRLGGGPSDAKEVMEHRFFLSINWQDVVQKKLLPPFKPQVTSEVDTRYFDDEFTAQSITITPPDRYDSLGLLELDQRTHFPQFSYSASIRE
T3 sequence (P31751 whole entry): as above
T1 sequence (P31749 whole entry): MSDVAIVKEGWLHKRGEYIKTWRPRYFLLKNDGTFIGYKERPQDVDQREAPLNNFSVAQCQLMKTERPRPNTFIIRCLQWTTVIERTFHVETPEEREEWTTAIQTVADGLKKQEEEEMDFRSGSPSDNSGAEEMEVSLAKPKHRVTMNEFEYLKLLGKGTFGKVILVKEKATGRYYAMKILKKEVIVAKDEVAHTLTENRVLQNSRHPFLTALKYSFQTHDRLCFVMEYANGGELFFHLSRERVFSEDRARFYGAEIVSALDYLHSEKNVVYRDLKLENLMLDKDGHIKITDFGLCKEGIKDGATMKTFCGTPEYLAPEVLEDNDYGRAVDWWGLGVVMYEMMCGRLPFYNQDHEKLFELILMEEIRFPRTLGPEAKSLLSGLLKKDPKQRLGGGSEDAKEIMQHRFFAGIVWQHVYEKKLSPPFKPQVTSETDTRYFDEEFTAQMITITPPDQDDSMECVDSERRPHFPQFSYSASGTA
T4 sequence (P31749 whole entry): as above

Row | SMILES | IC50 (Akt1) [nM] | IC50 (Akt3) [nM] | IC50 (p-Akt2 in WM115 cells) [nM] | IC50 (p-Akt1 in LNCaP cells) [nM] | IC50 (p-Akt3 in WM115 cells) [nM] | IC50 (Akt2) [nM]
1 | CC(=O)N(C)[C@H]1CC[C@H](CC(=O)Nc2cnc(-c3ccc(C(C)(C)N)nc3)c(-c3ccccc3)c2)CC1 [Example 43, N-(6′-(2-aminopropan-2-yl)-3-phenyl-[2,3′-bipyridin]-5-yl)-2-(trans-4-(N-methylacetamido)cyclohexyl)acetamide] | > 30000 | 1100 | > 30000 | > 30000 | 1700 | > 30000
2 | CC(=O)N(C(C)C)[C@H]1CC[C@H](CC(=O)Nc2cc(-c3ccccc3)c(-c3ccc([C@]4(N)C[C@](C)(O)C4)cc3)nn2)CC1 [Example 100, N-(6-(4-(trans-1-amino-3-hydroxy-3-methylcyclobutyl)phenyl)-5-phenylpyridazin-3-yl)-2-(trans-4-(N-isopropylacetamido)cyclohexyl)acetamide] | 2400 | 8 | 1000 | 790 | 26 | 170
3 | COC(=O)N(C)[C@H]1CC[C@H](C(C)C(=O)Nc2cnc(-c3ccc(C(C)(C)N)cc3)c(-c3ccccc3)c2)CC1 (stereo partly drawn) [Example A45, Methyl (trans-4-(1-((6-(4-(2-aminopropan-2-yl)phenyl)-5-phenylpyridin-3-yl)amino)-1-oxopropan-2-yl)cyclohexyl)(methyl)carbamate] | > 30000 | 2600 | 12000 | > 30000 | 480 | –
4 | CC(C)C(=O)N(C)[C@H]1CC[C@H](CC(=O)Nc2cc(-c3ccccc3)c(-c3ccc([C@]4(N)C[C@](C)(O)C4)cc3)cn2)CC1 [Example 85, N-(trans-4-(2-((5-(4-(trans-1-amino-3-hydroxy-3-methylcyclobutyl)phenyl)-4-phenylpyridin-2-yl)amino)-2-oxoethyl)cyclohexyl)-N-methylisobutyramide] | – | 13 | 600 | 4700 | 20 | 77
5 | COC(=O)N(C)[C@H]1CC[C@H](CC(=O)Nc2cc(-c3ccsc3)c(-c3ccc(C4(N)CCC4)cc3)nn2)CC1 [Example 81, Methyl (trans-4-(2-((6-(4-(1-aminocyclobutyl)phenyl)-5-(thiophen-3-yl)pyridazin-3-yl)amino)-2-oxoethyl)cyclohexyl)(methyl)carbamate] | – | 59 | 4300 | > 27000 | 120 | 1300
6 | CN(C(=O)C1CC1)[C@H]1CC[C@H](CC(=O)Nc2cc(-c3ccccc3)c(-c3ccc(C4(N)CCC4)cc3)cn2)CC1 [Example A72, N-(trans-4-(2-((5-(4-(1-aminocyclobutyl)phenyl)-4-phenylpyridin-2-yl)amino)-2-oxoethyl)cyclohexyl)-N-methylcyclopropanecarboxamide] | – | 24 | 3500 | 8800 | 220 | 290
7 | CN(C(=O)C1CCC1)[C@H]1CC[C@H](CC(=O)Nc2cc(-c3ccccc3)c(-c3ccc([C@]4(N)C[C@](C)(O)C4)cc3)cn2)CC1 [Example A76, N-(trans-4-(2-((5-(4-(trans-1-amino-3-hydroxy-3-methylcyclobutyl)phenyl)-4-phenylpyridin-2-yl)amino)-2-oxoethyl)cyclohexyl)-N-methylcyclobutanecarboxamide] | – | 13 | 1200 | 4300 | 59 | 190
8 | COC(=O)N[C@H]1CC[C@H](CC(=O)Nc2cc(-c3ccccc3)c(-c3ccc(C4(N)CC4)c(F)c3)cn2)CC1 [Example A106, Methyl (trans-4-(2-((5-(4-(1-aminocyclopropyl)-3-fluorophenyl)-4-phenylpyridin-2-yl)amino)-2-oxoethyl)cyclohexyl)carbamate] | – | 750 | 23000 | > 30000 | 1700 | 11000
